Assay results reported in publication PMC6466477 (Journal of Medicinal Chemistry, 2019).

How the values were obtained:
hA3AR [1] = target: T1, hA3AR (Homo sapiens, UniProt P0DMS8); settings: 25 °C; ref 7 (Xia et al.); cited from earlier work
T1 sequence (P0DMS8 1-318): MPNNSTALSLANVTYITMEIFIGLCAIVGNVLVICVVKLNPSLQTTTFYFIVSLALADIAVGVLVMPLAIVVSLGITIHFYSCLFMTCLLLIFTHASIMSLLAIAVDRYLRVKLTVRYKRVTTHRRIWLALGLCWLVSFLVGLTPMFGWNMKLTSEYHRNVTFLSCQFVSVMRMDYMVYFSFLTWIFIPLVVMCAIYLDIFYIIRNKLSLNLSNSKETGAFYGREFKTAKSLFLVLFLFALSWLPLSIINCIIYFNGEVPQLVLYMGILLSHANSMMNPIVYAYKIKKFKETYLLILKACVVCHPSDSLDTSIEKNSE

hA3AR [2] = target: T1, hA3AR; assay type: biochemical; settings: for mode of antagonism: [35S]GTPγS binding assays, overall; for Schild slope, co-incubation: antagonist co-incubated with 2-Cl-IB-MECA for 30 min at 25 °C; for type of antagonism in co-incubation experiment: co-incubated with 2-Cl-IB-MECA; for type of antagonism in preincubation experiment: pretreatment with antagonist before 2-Cl-IB-MECA
hA3AR [3] = target: T1, hA3AR; experiment: Radioligand competition association assay with [3H]PSB-11; assay type: binding; settings: competition association curve, Figure 3
hA3AR [4] = target: T1, hA3AR; experiment: Time-dependent [3H]PSB-11 displacement with or without 4 h preincubation; assay type: binding; settings: no preincubation, 0.5 h co-incubation with [3H]PSB-11, 25 °C

Row | time to reach equilibrium (hA3AR [3]) [min] | Schild slope, preincubation (hA3AR [2]; antagonist preincubated 60 min at 25 °C before 2-Cl-IB-MECA for 30 min) | hA3AR pKi (pre-0 h) (hA3AR [4]) | Compound | koff (k2) of radioligand (hA3AR [1]) [min^–1] | kon (k1) of radioligand (hA3AR [1]) | mode of antagonism (hA3AR [2]) | Schild slope, co-incubation (hA3AR [2]) | type of antagonism in co-incubation experiment (hA3AR [2]) | type of antagonism in preincubation experiment (hA3AR [2])
1 | – | – | – | CC[C@@H]1CN2C(=O)N(C)c3nc(-c4ccccc4)[nH]c3C2=N1 [[^3H]PSB-11, [^3H]8-Ethyl-4-methyl-2-phenyl-(8R)-4,5,7,8-tetrahydro-1H-imidazo[2,1-i]-purin-5-one] | 0.3992 ± 0.02 | 0.281 ± 0.04 × 10^8 M^–1 min^–1 | – | – | – | –
2 | – | – | – | CCCn1c(=O)c2c(nc3cc(OC)ccn32)n(CCCNC(=O)c2ccc(S(=O)(=O)F)cc2)c1=O [compound 17b, 4-((3(8-Methoxy-2,4-dioxo-3-propyl-3,4-dihydropyrido[2,1-f]purin-1(2H)yl)propyl)carbamoyl)benzenesulfonyl Fluoride] | – | – | competitive insurmountable | 1.1 ± 0.1 | surmountable antagonism | insurmountable antagonism
3 | ≤ 30 | 1.1 ± 0.1 | 6.2 ± 0.03 | CCCn1c(=O)c2c(nc3cc(OC)ccn32)n(CCCNC(=O)c2ccc(S(C)(=O)=O)cc2)c1=O [compound 19, N-(3-(8-Methoxy-2,4-dioxo-3-propyl-3,4-dihydropyrido[2,1-f]purin-1(2H)-yl)propyl)-4-(methylsulfonyl)benzamide] | – | – | competitive surmountable | 1.0 ± 0.1 | surmountable antagonism | surmountable antagonism
